Values quoted from earlier work in patent US20190358249A1, “Injectable Combination Products Of Fosaprepitant And 5-HT3 Blocker” (Navinta III Inc, priority 2018, published 2019).
“Also recorded” adds a separate entry of the source. Structures can show the parent of a compound that is named as a salt.

Columns and labels:
[1] = tested on: subjects receiving highly emetogenic cisplatin-based chemotherapy; details: added to ondansetron and dexamethasone
[2] = 1% w/v in water
[3] = precipitates when the pH is above the range

C[C@@H](O[C@H]1OCCN(Cc2n[nH]c(=O)[nH]2)[C@H]1c1ccc(F)cc1)c1cc(C(F)(F)F)cc(C(F)(F)F)c1 [Aprepitant]
solubility in water (in words) (water): very low solubility; also recorded: minimal solubility; also recorded: practically insoluble
protection against CINV [1]: consistently superior protection

C[C@@H](O[C@H]1OCCN(Cc2nc(O)n(P(=O)(O)O)n2)[C@H]1c1ccc(F)cc1)c1cc(C(F)(F)F)cc(C(F)(F)F)c1 [Fosaprepitant]
solubility in water (in words) (water): good solubility

Cc1nccn1CC1CCc2c(c3ccccc3n2C)C1=O (stereo not drawn) [Ondansetron]
pH of a 1% w/v solution in water [2]: about 4.6
solubility in saline (saline): 0.8%
solubility in water (water): 3.2%
pH above which free base precipitates [3]: 5.7-7

O=C1c2cccc3c2[C@H](CCC3)CN1[C@@H]1CN2CCC1CC2 [Palonosetron Hydrochloride]
solubility in aqueous media (across the physiological pH range): very soluble
solubility in water (in words) (water): freely soluble
